These results are taken from patent US20230138851A1, “NOVEL ALKYNE DERIVATIVES” (CARNA BIOSCIENCES, INC., priority 2020, published 2023).

Bounds are passed on as bounds.

Common to all, as to assay type: biochemical
In assay [1] the target is T1, DYRK1A (Homo sapiens, UniProt Q13627).
T1 construct: purchased Carna Biosciences, Inc. 04-130
Briefly: Inhibition test on activity of DYRK family, mobility shift assay (MSA), DYRK1A. Particulars: ATP 100 μM, FITC-labeled DYRKtide peptide substrate, room temperature 1 hour; for IC50: read-out: Inhibitory Activity 1a (IC50 against DYRK1A). The method, boiled down:
(§1)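 FITC-DYRKtide phosphorylation in 20 mM HEPES pH 7.5 with MgCl2; ATP in the substrate mix was 100 μM (DYRK1A), 200 μM (DYRK1B), 40 μM (DYRK2) or 20 μM (DYRK3). Reactions ran 1 h at room temperature; inhibition from P/(P+S) versus blank and DMSO control, IC50 by regression on log concentration.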

For assay [2], the target named is T2, DYRK2 (Homo sapiens, UniProt Q92630).
T2 construct: purchased Carna Biosciences, Inc. 04-132
T2 sequence (Q92630 1-601): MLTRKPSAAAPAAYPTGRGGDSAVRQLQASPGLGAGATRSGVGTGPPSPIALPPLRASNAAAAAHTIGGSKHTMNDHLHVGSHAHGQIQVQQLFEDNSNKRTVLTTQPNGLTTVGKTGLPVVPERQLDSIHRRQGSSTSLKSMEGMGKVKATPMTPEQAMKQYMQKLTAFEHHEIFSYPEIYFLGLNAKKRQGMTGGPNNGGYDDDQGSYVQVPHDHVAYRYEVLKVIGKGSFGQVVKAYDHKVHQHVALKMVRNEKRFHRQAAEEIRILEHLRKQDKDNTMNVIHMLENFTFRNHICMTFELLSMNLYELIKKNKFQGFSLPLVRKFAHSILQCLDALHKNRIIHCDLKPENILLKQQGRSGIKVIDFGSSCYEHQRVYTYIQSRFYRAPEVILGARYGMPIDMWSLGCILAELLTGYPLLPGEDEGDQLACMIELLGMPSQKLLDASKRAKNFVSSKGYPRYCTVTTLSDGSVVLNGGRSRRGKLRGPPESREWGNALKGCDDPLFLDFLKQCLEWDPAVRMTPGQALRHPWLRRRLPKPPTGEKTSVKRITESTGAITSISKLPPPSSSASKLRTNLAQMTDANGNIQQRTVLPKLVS
Briefly: Inhibition test on activity of DYRK family, mobility shift assay (MSA), DYRK2. Particulars: ATP 40 μM, FITC-labeled DYRKtide peptide substrate, room temperature 1 hour; read-out: Inhibitory Activity 2 (IC50 against DYRK2). The method, boiled down: as §1

Assay [3] deals with T3, DYRK3 (Homo sapiens, UniProt O43781).
T3 construct: purchased Carna Biosciences, Inc. 04-133
T3 sequence (O43781 1-588): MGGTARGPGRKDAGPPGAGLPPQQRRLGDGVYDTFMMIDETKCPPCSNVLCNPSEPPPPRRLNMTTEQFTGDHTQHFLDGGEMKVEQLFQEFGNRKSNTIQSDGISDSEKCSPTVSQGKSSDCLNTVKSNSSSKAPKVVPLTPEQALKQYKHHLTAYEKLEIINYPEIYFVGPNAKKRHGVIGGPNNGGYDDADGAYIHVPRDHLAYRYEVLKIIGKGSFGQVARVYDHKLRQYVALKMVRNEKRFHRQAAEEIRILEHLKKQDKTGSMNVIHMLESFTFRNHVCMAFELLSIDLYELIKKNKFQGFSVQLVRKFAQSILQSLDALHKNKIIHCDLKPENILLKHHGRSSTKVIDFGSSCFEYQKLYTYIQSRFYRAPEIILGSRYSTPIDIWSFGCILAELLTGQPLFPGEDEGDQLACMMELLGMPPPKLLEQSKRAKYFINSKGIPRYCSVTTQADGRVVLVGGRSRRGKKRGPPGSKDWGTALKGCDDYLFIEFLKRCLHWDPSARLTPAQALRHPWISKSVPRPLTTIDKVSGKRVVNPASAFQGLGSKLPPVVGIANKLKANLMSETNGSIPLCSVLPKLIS
In words: Inhibition test on activity of DYRK family, mobility shift assay (MSA), DYRK3. Particulars: ATP 20 μM, FITC-labeled DYRKtide peptide substrate, room temperature 1 hour; for IC50: read-out: Inhibitory Activity 3 (IC50 against DYRK3). The method, boiled down:
as §1

`CC#CC1N(c2nc3c4c(ccc3s2)OCC4)C(=O)NC1(C)C` (racemic) [Example 54, (RS)-1-(7,8-dihydrobenzofuro[4,5-d]thiazol-2-yl)-4,4-dimethyl-5-(prop-1-yn-1-yl)imidazolidin-2-one]: the “Inhibitory Activity 1a (IC50 against DYRK1A)” value (“Inhibitory Activity 1a” for short) in assay [1] is on record as “* *”. In addition, the half-inhibitory concentration (IC50) in assay [2] and in assay [3] was at least 1000 nM throughout.
In the case of `CC#CC1CNC(=O)N1c1nc2c3c(ccc2s1)OCCN3CCN1CCCCC1` (racemic) [Example 43, (RS)-1-{9-[2-(piperidin-1-yl)ethyl]-8,9-dihydro-7H-thiazolo[4′,5′:3,4]benz[1,2-b][1,4]oxazin-2-yl}-5-(prop-1-yn-1-yl)imidazolidin-2-one], the half-maximal inhibitory concentration (IC50) (in general, the concentration that gives 50% inhibition) in assay [1] is 100 to 1000 nM; in assay [2], at least 1000 nM; in assay [3], at least 1000 nM.
Regarding `CC#CC1CNC(=O)N1c1nc2c3c(ccc2s1)OCC3` (single isomer, unassigned) [Example 10, 1-(7,8-dihydrobenzofuro[4,5-d]thiazol-2-yl)-5-(prop-1-yn-1-yl)imidazolidin-2-one], the IC50 in assay [1] was 100 to 1000 nM; in assay [2], at least 1000 nM; in assay [3], at least 1000 nM.
Consider `CC#C[C@H]1[C@H](CO)NC(=O)N1c1nc2c3c(ccc2s1)OCCO3` (single isomer, unassigned) [Example 66, trans-1-(7,8-dihydro-[1,4]dioxino[2′,3′:5,6]benz[1,2-d]thiazol-2-yl)-4-(hydroxymethyl)-5-(prop-1-yn-1-yl)imidazolidin-2-one], for which the IC50 in assay [1] is 100 to 1000 nM; in assay [2], at least 1000 nM; in assay [3], at least 1000 nM.
As to `CC#CC1CNC(=O)N1c1nc2c3c(ccc2s1)OCC(C)N3C` (single isomer, unassigned) [Example 48, 1-(-8,9-dimethyl-8,9-dihydro-7H-thiazolo[4′,5′:3,4]benz[1,2-b][1,4]oxazin-2-yl)-5-(prop-1-yn-1-yl)imidazolidin-2-one], the IC50 in assay [1] is 100 to 1000 nM; in assay [2], at least 1000 nM; in assay [3], at least 1000 nM.
In the case of `[2H]C1([2H])Oc2ccc3sc(N4C(=O)NC[C@H]4C#CC)nc3c2O1` [Example 62, (R)-1-([1,3]dioxolo[4′,5′:5,6]benz[1,2-d]thiazol-7-yl-2,2-d2)-5-(prop-1-yn-1-yl)imidazolidin-2-one], in assay [1], the “Inhibitory Activity 1a” value is on record as “* * *”. Also, the concentration for half-maximal inhibition (IC50) in assay [2] was in the range of 100 to 1000 nM. Besides, the “Inhibitory Activity 3 (IC50 against DYRK3)” value in assay [3] was “* *”.
In the same order, the values of `CC#CC1CNC(=O)N1c1nc2c3c(ccc2s1)OCCO3` (single isomer, unassigned) [Example 58, 1-(7,8-dihydro-[1,4]dioxino[2′,3′:5,6]benz[1,2-d]thiazol-2-yl)-5-(prop-1-yn-1-yl)imidazolidin-2-one] are “* * *”, 100 to 1000 nM and “* *”.
Consider `CC#C[C@@H]1[C@H](C(C)C)NC(=O)N1c1nc2c3c(ccc2s1)OCC3` [Example 68, (4S,5R)-1-(7,8-dihydrobenzofuro[4,5-d]thiazol-2-yl)-4-isopropyl-5-(prop-1-yn-1-yl)imidazolidin-2-one], for which, in assay [1], the “Inhibitory Activity 1a” value is reported as “* * *”. In addition, the IC50 in assay [2] is at least 1000 nM; in assay [3], 100 to 1000 nM.
For `CC#CC1CNC(=O)N1c1nc2c(ccc3ocnc32)s1` (racemic) [Example 7, (RS)-5-(prop-1-yn-1-yl)-1-(thiazolo[5′,4′:5,6]benzo[1,2-d]oxazole-7-yl)imidazolidin-2-one], the “Inhibitory Activity 1a” value in assay [1] is listed as “* * *”. Moreover, the concentration for half-maximal inhibition (IC50) in assay [2] and in assay [3] was at least 1000 nM throughout.
Regarding `CC#C[C@H]1[C@H]([C@@H](C)O)NC(=O)N1c1nc2c3c(ccc2s1)OCC3` [Example 81, (4R,5S)-1-(7,8-dihydrobenzofuro[4,5-d]thiazol-2-yl)-4-((R)-1-hydroxyethyl)-5-(prop-1-yn-1-yl)imidazolidin-2-one], the concentration for half-maximal inhibition (IC50) was 100 to 1000 nM in assay [1], at least 1000 nM in assay [2] and at least 1000 nM in assay [3].
For the molecule `CC#C[C@@H]1[C@H](CF)NC(=O)N1c1nc2c3c(ccc2s1)OCC3` (relative stereo) [Example 80, cis-1-(7,8-dihydrobenzofuro[4,5-d]thiazol-2-yl)-4-(fluoromethyl)-5-(prop-1-yn-1-yl)imidazolidin-2-one], the values for the IC50 in assay [1], in assay [2] and in assay [3] were below 10 nM, at least 1000 nM and 100 to 1000 nM, respectively.
For the molecule `CC#C[C@@H]1[C@@H](C)NC(=O)N1c1nc2c3c(ccc2s1)OCC3` [Example 16, (4R,5R)-1-(7,8-dihydrobenzofuro[4,5-d]thiazol-2-yl)-4-methyl-5-(prop-1-yn-1-yl)imidazolidin-2-one], in assay [1], the “Inhibitory Activity 1a” value is reported as “* * *”. The values for the 50% inhibitory concentration (IC50) in assay [2] and in assay [3] were at least 1000 nM and 100 to 1000 nM, respectively.
